The text below walks through data of article PMC2893567 (Macromolecular bioscience, 2010).

This experiment concerns the target cholera toxin B5 subunit (CT B5) (Vibrio cholerae serotype O1, UniProt P01556). Kind of experiment: biochemical. The class given is binding.

Chain of cholera toxin B5 subunit (CT B5) (P01556 22-124 limits assumed): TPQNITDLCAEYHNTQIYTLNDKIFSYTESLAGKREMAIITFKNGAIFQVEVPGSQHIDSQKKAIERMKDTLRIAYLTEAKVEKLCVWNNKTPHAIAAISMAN

`O=C[C@H](O)[C@@H](O)[C@@H](O)[C@H](O)CO` [Galactose]: the Improvement over galactose stood at 1. In addition, the IC50 (as a rule, the concentration at which inhibition is half-maximal) (IC50 (saccharide concentration)) lay within 30 to 45 mM.

In the case of “XGAGAGPSGAGAGPSGAGAGPSGAGAGPSGAGAGPXGGGG [35-RCG-2]”, the “Non-specific binding of unmodified peptide” value is on record as “less than 20%”.

Consider “XGAKAKPKGAKAKPKGAKAKPKGAKAKPKGAKAKPXGGGG [35-RCK-2]”, for which the “Non-specific binding of unmodified peptide” value is “less than 20%”.
